Measured values taken from patent US9650334B2 (AbbVie Deutschland GmbH & Co. KG, priority 2013, dated 2017).

Target: T1, human GlyT1c transporter (Homo sapiens, UniProt P48067)
T1 sequence (P48067 1-706): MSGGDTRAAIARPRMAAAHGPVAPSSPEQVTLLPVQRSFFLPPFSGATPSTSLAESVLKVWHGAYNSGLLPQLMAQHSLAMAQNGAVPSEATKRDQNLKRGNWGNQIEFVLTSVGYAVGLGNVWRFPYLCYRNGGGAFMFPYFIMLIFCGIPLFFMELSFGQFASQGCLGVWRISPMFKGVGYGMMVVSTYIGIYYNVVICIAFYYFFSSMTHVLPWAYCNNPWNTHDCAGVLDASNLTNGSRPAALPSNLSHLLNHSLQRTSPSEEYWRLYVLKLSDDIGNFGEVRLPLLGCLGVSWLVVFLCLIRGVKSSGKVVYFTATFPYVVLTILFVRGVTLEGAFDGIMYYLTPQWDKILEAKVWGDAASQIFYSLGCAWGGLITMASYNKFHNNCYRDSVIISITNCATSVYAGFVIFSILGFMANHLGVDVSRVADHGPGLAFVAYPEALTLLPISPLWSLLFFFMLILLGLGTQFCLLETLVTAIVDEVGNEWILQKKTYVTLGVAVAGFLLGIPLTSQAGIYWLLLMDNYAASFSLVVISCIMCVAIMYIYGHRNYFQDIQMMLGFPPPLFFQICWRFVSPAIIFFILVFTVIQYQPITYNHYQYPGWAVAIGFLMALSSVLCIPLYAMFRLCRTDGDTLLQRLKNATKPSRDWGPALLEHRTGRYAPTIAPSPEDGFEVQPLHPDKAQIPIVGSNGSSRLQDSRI
Assay: Radioligand binding assays using recombinant CHO cell membranes expressing human GlyT1
Details: radioligand binding to human GlyT1c transporter-expressing CHO cell membranes

Row | Molecule | Ki (Ki) [nM] | Ki [nM]
1 | C[C@H]1C[C@H](C)OC([C@H]2CN(S(=O)(=O)c3cn(C)cn3)C[C@@H]2Nc2cccc(OC(F)(F)F)c2)O1 (stereo partly drawn) [Example 922, (3R,4S)-4-[(4S,6S)-4,6-dimethyl-1,3-dioxan-2-yl]-1-[(1-methyl-1H-imidazol-4-yl)sulfonyl]-N-[3-(trifluoromethoxy)phenyl]pyrrolidin-3-amine] | ≤ 10 | –
2 | Cc1cc(N[C@H]2CN(S(=O)(=O)c3cn(C)cn3)C[C@@H]2C2OCCCO2)ccc1F [Example 923, (3R,4S)-4-(1,3-dioxan-2-yl)-N-(4-fluoro-3-methylphenyl)-1-[(1-methyl-1H-imidazol-4-yl)sulfonyl]pyrrolidin-3-amine] | ≤ 100 | –
3 | Cn1cnc(S(=O)(=O)N2C[C@H](Nc3ccc(F)c(OC(F)(F)F)c3)[C@@H](C3OCCCO3)C2)c1 [Example 924, (3R,4S)-4-(1,3-dioxan-2-yl)-N-[4-fluoro-3-(trifluoromethoxy)phenyl]-1-[(1-methyl-1H-imidazol-4-yl)sulfonyl]pyrrolidin-3-amine] | ≤ 10 | –
4 | (3R,4S)-N-[2-chloro-4-(trifluoromethyl)benzyl]-1-[(1-methyl-1H-imidazol-4-yl)sulfonyl]-4-phenylpyrrolidin-3-amine [Example 394] | – | ≤ 10
5 | N-{(3R,4S)-4-(4-fluorophenyl)-1-[(1-methyl-1H-imidazol-4-yl)sulfonyl]pyrrolidin-3-yl}-6-(2-methylpropoxy)pyrimidin-4-amine [Example 718] | – | ≤ 100
6 | Trans-N-[4-chloro-3-(trifluoromethoxy)phenyl]-1-[(1-methyl-1H-imidazol-4-yl)sulfonyl]-4-[(3S)-tetrahydro-2H-pyran-3-yl]pyrrolidin-3-amine [Example 793] | – | ≤ 10000
7 | Trans-N-[4-chloro-3-(trifluoromethyl)phenyl]-1-[(1-methyl-1H-imidazol-4-yl)sulfonyl]-4-[(3S)-tetrahydro-2H-pyran-3-yl]pyrrolidin-3-amine [Example 792] | – | ≤ 10000

The next lines start with the values.

Row | Ki (Ki) [nM] | Ki [nM] | Molecule
8 | ≤ 10 | – | Cn1cnc(S(=O)(=O)N2C[C@H](Nc3cccc(OC(F)F)c3)[C@@H](C3OCCCO3)C2)c1 [Example 925, (3R,4S)-N-[3-(difluoromethoxy)phenyl]-4-(1,3-dioxan-2-yl)-1-[(1-methyl-1H-imidazol-4-yl)sulfonyl]pyrrolidin-3-amine]
9 | ≤ 10 | – | CC(C)c1cccc(N[C@H]2CN(S(=O)(=O)c3cn(C)cn3)C[C@@H]2C2OCCCO2)c1 [Example 926, (3R,4S)-4-(1,3-dioxan-2-yl)-1-[(1-methyl-1H-imidazol-4-yl)sulfonyl]-N-[3-(propan-2-yl)phenyl]pyrrolidin-3-amine]
10 | ≤ 10 | – | Cn1cnc(S(=O)(=O)N2CC(Nc3ccc(F)c(C(F)(F)F)c3)C(c3ccc(F)cn3)C2)c1 (centres unmarked) [Example 927, 4-(5-fluoropyridin-2-yl)-N-[4-fluoro-3-(trifluoromethyl)phenyl]-1-[(1-methyl-1H-imidazol-4-yl)sulfonyl]pyrrolidin-3-amine]
11 | ≤ 10 | – | Cn1cnc(S(=O)(=O)N2C[C@H](Nc3cccc(OCC(F)F)c3)[C@@H](C3OCCCO3)C2)c1 [Example 928, (3R,4S)-N-[3-(2,2-difluoroethoxy)phenyl]-4-(1,3-dioxan-2-yl)-1-[(1-methyl-1H-imidazol-4-yl)sulfonyl]pyrrolidin-3-amine]
